This note sets out measurements from US10183944B2 (Asana Biosciences, LLC, priority 2011, dated 2019).

In test [1] the target is JAK2 (Homo sapiens (Human), UniProt O60674). The test is described as follows: Inhibition of enzymatic JAK2 kinase activity (TR-FRET). It is filed as biochemical. The note with it: read-out: IC50 JAK. A digest of the protocol:
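Enzyme preincubated with compound 30 min at RT, then Ulight-poly-GT substrate and ATP added for 60 min at RT. EDTA stop, Eu-antiphosphotyrosine antibody; TR-FRET ratio 665/615 nm (ex 340 nm), blank-corrected; % inhibition versus positive control.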
On the technique in general: TR-FRET usually uses a lanthanide donor and a delayed reading to cut background.

For test [2], the target named is Syk (356-635 amino acids) catalytic domain (Homo sapiens (Human), UniProt P43405). Kind of test: Inhibition of enzymatic Syk kinase activity (radiometric). Format: biochemical. The note with it: read-out: IC50 Syk. A digest of the protocol:
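Human Syk (356-635) kinase domain (0.035–7.5 ng/reaction) preincubated with compound 30 minutes at room temperature, then reacted with pG4T substrate, 100 μM ATP (stock) and γ-32P-ATP for 10 minutes at 30° C. Reaction stopped with HCl/ATP, spotted on P81 paper, washed and counted by scintillation. Percent inhibition versus no-compound counts.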

For test [3], the system named is RBL2H3 cells. The test is described as follows: Degranulation assay: β-hexosaminidase release during immune complex mediated degranulation. Format: cell-based, rat. The note with it: Rattus norvegicus, RBL-2H3, Assay Protocol B (96 well format); for inhibition at 1 µM: read-out: Degranulation % inhibition at 1 μM; for EC50: read-out: Degranulation EC50. A digest of the protocol:
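RBL2H3 cells sensitized overnight (or 24 h) with anti-DNP rat IgE, pretreated 15 min with compounds in 0.5% DMSO, then challenged with DNP-BSA for 45–60 min. β-Hexosaminidase in supernatant read fluorometrically (Ex 355/Em 460 nm) with β-NAG substrate, 30 min RT; % release/inhibition calculated.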

Sequence of JAK2 (O60674 808-1132): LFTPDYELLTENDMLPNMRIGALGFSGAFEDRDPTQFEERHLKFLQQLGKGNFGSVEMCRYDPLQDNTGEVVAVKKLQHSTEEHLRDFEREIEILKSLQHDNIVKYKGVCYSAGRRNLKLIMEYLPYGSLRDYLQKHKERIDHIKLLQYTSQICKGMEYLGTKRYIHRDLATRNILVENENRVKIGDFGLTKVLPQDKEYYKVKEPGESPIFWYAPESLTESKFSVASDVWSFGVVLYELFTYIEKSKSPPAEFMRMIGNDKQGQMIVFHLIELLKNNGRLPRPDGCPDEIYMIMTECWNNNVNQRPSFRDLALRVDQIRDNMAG

On to `O=C(O)CN1CCCN(c2ccc(Nc3nc(N4CCCCCC4)nc4cn[nH]c(=O)c34)cc2)CC1` [Example 145, 2-(4-(4-((2-(azepan-1-yl)-5-oxo-5,6-dihydropyrimido[4,5-d]pyridazin-4-yl)amino)phenyl)-1,4-diazepan-1-yl)acetic acid], for which the IC50 in test [1] and in test [2] was < 0.01 µM throughout. Besides, the inhibition at 1 µM in test [3] was 52%. Moreover, in test [3], the EC50 came out at 0.098 µM.

Regarding `CC(C)(O)C1CCN(c2ccc(Nc3nc(N4CCC(CC#N)CC4)nc4cn[nH]c(=O)c34)cc2)CC1` [Example 146, 2-(1-(4-((4-(4-(2-hydroxypropan-2-yl)piperidin-1-yl)phenyl)amino)-5-oxo-5,6-dihydropyrimido[4,5-d]pyridazin-2-yl)piperidin-4-yl)acetonitrile], the IC50 in test [1] is < 0.05 µM; in test [2], < 0.01 µM. The inhibition at 1 µM in test [3] is 66%. Besides, in test [3], the EC50 turned out to be 0.026 µM.

Regarding `N#CCC1CCN(c2nc(Nc3ccc(N4CCC(CCC(=O)O)CC4)cc3)c3c(=O)[nH]ncc3n2)CC1` [Example 147, 3-(1-(4-((2-(4-(cyanomethyl)piperidin-1-yl)-5-oxo-5,6-dihydropyrimido[4,5-d]pyridazin-4-yl)amino)phenyl)piperidin-4-yl)propanoic acid], the IC50 in test [1] was < 0.05 µM. Further, the IC50 in test [2] is < 0.01 µM. Further, in test [3], the inhibition at 1 µM was determined as 49% and the EC50 turned out to be 0.152 µM.

Consider `O=c1[nH]ncc2nc(N3CCCCC3)nc(Nc3ccc(OCCN4CCNCC4)cc3)c12` [Example 153, 4-((4-(2-(piperazin-1-yl)ethoxy)phenyl)amino)-2-(piperidin-1-yl)pyrimido[4,5-d]pyridazin-5(6H)-one], for which, in test [1], the IC50 was < 0.1 µM. For the same molecule, in test [2], the IC50 is < 0.05 µM. Moreover, in test [3], the inhibition at 1 µM was 47% and the half-maximal effective concentration (EC50) was 0.324 µM.

With `O=C(O)CN1CCCN(c2ccc(Nc3nc(N4CCCCC4)nc4cn[nH]c(=O)c34)cc2)CC1` [Example 154, 2-(4-(4-((5-oxo-2-(piperidin-1-yl)-5,6-dihydropyrimido[4,5-d]pyridazin-4-yl)amino)phenyl)-1,4-diazepan-1-yl)acetic acid], the IC50 in test [1] is < 0.05 µM. For the same molecule, the IC50 in test [2] was < 0.05 µM. Besides, in test [3], the inhibition at 1 µM amounted to 23% and the EC50 amounted to 2.32 µM.

`CC1CCN(c2nc(Nc3ccc(N4CCC5(CC4)CC5C(=O)O)cc3)c3c(=O)[nH]ncc3n2)CC1` (stereo not drawn) [Example 155, 6-(4-((2-(4-methylpiperidin-1-yl)-5-oxo-5,6-dihydropyrimido[4,5-d]pyridazin-4-yl)amino)phenyl)-6-azaspiro[2.5]octane-1-carboxylic acid]: the half-maximal inhibitory concentration (IC50) in test [1] and in test [2] was < 0.05 µM in each case. The EC50 in test [3] was 0.027 µM.

In the case of `O=C1CN(CCOc2ccc(Nc3nc(N4CCCCCC4)nc4cn[nH]c(=O)c34)cc2)CCN1` [Example 157, 2-(azepan-1-yl)-4-((4-(2-(3-oxopiperazin-1-yl)ethoxy)phenyl)amino) pyrimido[4,5-d]pyridazin-5(6H)-one], the IC50 in test [1] and in test [2] was < 0.05 µM in each case. Moreover, in test [3], the inhibition at 1 µM is 70%. The EC50 in test [3] came to 0.042 µM.

For `O=C(O)C1CC12CCN(CCOc1ccc(Nc3nc(N4CCCCCC4)nc4cn[nH]c(=O)c34)cc1)CC2` (stereo not drawn) [Example 158, 6-(2-(4-((2-(azepan-1-yl)-5-oxo-5,6-dihydropyrimido[4,5-d]pyridazin-4-yl)amino)phenoxy)ethyl)-6-azaspiro[2.5]octane-1-carboxylic acid], the figures for the IC50 in test [1] and in test [2] were < 0.01 µM and < 0.05 µM, respectively. Besides, the inhibition at 1 µM in test [3] stood at 53%. Also, the EC50 in test [3] worked out at 0.162 µM.

For the molecule `CCN(CC)CCOc1ccc(Nc2nc(N3CCCCCC3)nc3cn[nH]c(=O)c23)cc1` [Example 159, 2-(azepan-1-yl)-4-((4-(2-(diethylamino)ethoxy)phenyl)amino)pyrimido[4,5-d]pyridazin-5(6H)-one], the IC50 in test [1] was < 0.01 µM. Besides, the IC50 in test [2] was < 0.05 µM. In test [3], the inhibition at 1 µM came to 68% and the EC50 worked out at 0.056 µM.

As for `CN(c1nc(Nc2ccc(N3CCC(CC(=O)O)CC3)cc2)c2c(=O)[nH]ncc2n1)C1CCCCC1` [Example 161, 2-(1-(4-((2-(cyclohexyl(methyl)amino)-5-oxo-5,6-dihydropyrimido[4,5-d]pyridazin-4-yl)amino)phenyl)piperidin-4-yl)acetic acid], the IC50 in test [1] was < 0.01 µM; in test [2], < 0.05 µM. Besides, the inhibition at 1 µM in test [3] came to 74%. In test [3], the EC50 stood at 0.039 µM.

Regarding `N#CCC1CCN(c2nc(Nc3ccc(N4CCN(CC(=O)O)CC4)cc3)c3c(=O)[nH]ncc3n2)CC1` [Example 162, 2-(4-(4-((2-(4-(cyanomethyl)piperidin-1-yl)-5-oxo-5,6-dihydropyrimido[4,5-d]pyridazin-4-yl)amino)phenyl)piperazin-1-yl)acetic acid], the IC50 in test [1] was < 0.01 µM. Besides, the IC50 in test [2] was < 0.01 µM. Further, in test [3], the inhibition at 1 µM came out at 27% and the EC50 was found to be 0.281 µM.

Regarding `O=c1[nH]ncc2nc(N3CCCCCC3)nc(Nc3ccc(OCCN4CCC(O)CC4)cc3)c12` [Example 172, 2-(azepan-1-yl)-4-((4-(2-(4-hydroxypiperidin-1-yl)ethoxy)phenyl)amino)pyrimido[4,5-d]pyridazin-5(6H)-one], the IC50 in test [1] is < 0.01 µM. For the same molecule, in test [2], the IC50 is < 0.05 µM. Besides, in test [3], the inhibition at 1 µM was 50% and the EC50 amounted to 0.101 µM.

Turning to `O=c1[nH]ncc2nc(N3CCCCCC3)nc(Nc3ccc(CCCN4CCNCC4)cc3)c12` [Example 173, 2-(azepan-1-yl)-4-((4-(3-(piperazin-1-yl)propyl)phenyl)amino)pyrimido[4,5-d]pyridazin-5(6H)-one], the IC50 in test [1] was < 0.05 µM. Further, in test [2], the IC50 is < 0.05 µM. In test [3], the inhibition at 1 µM was 66% and the EC50 was found to be 0.029 µM.

On to `CCN1CCN(c2ccc(Nc3nc(N4CCCCCC4)nc4cn[nH]c(=O)c34)cc2)CC1=O` [Example 175, 2-(azepan-1-yl)-4-((4-(4-ethyl-3-oxopiperazin-1-yl)phenyl)amino) pyrimido[4,5-d]pyridazin-5(6H)-one], for which the IC50 in test [1] was < 0.01 µM. Also, the IC50 in test [2] was < 0.01 µM. For the same molecule, in test [3], the inhibition at 1 µM was 98% and the EC50 stood at 0.006 µM.

As for `CCN1CCN(c2ccc(Nc3nc(N4CCC(CC#N)CC4)nc4cn[nH]c(=O)c34)cc2)CC1=O` [Example 178, 2-(1-(4-((4-(4-ethyl-3-oxopiperazin-1-yl)phenyl)amino)-5-oxo-5,6-dihydropyrimido[4,5-d]pyridazin-2-yl)piperidin-4-yl)acetonitrile], the IC50 in test [1] was < 0.01 µM. Further, the IC50 in test [2] was < 0.01 µM. Further, in test [3], the inhibition at 1 µM turned out to be 73% and the EC50 came to 0.039 µM.

Regarding `O=c1[nH]ncc2nc(N3CCCCCC3)nc(Nc3ccc(CCCN4CCC(O)CC4)cc3)c12` [Example 179, 2-(azepan-1-yl)-4-((4-(3-(4-hydroxypiperidin-1-yl)propyl)phenyl)amino)pyrimido[4,5-d]pyridazin-5(6H)-one], the IC50 in test [1] and in test [2] was < 0.01 µM each time. Besides, the inhibition at 1 µM in test [3] was found to be 45%. For the same molecule, in test [3], the EC50 amounted to 0.009 µM.

By IC50 is commonly meant the midpoint of a concentration-inhibition curve. By inhibition is commonly meant the percentage by which the read-out fell short of the control. Broadly, the EC50 is the concentration needed to bring the measured effect to its halfway point.
